“And” between values parts separate entries of the source, which are not always exact repeats. Equal values may be shown once.
Experiments:
[1] = molecular target: T1, androgen receptor (rat ventral prostate cytosol) (Rattus norvegicus, UniProt P15207); test: Androgen Receptor Binding Using Rat Ventral Prostate Cytosol; conditions: for inhibition at 1 µM: read-out: % Inhibition, Androgen Receptor Binding (Rat Cytosol); for IC50: read-out: IC50 (nM), Androgen Receptor Binding (Rat Cytosol)
T1 construct: from tissue; host or cells: ventral prostate cytosol of castrated male Sprague Dawley or Wistar rats
T1 sequence (P15207 1-902): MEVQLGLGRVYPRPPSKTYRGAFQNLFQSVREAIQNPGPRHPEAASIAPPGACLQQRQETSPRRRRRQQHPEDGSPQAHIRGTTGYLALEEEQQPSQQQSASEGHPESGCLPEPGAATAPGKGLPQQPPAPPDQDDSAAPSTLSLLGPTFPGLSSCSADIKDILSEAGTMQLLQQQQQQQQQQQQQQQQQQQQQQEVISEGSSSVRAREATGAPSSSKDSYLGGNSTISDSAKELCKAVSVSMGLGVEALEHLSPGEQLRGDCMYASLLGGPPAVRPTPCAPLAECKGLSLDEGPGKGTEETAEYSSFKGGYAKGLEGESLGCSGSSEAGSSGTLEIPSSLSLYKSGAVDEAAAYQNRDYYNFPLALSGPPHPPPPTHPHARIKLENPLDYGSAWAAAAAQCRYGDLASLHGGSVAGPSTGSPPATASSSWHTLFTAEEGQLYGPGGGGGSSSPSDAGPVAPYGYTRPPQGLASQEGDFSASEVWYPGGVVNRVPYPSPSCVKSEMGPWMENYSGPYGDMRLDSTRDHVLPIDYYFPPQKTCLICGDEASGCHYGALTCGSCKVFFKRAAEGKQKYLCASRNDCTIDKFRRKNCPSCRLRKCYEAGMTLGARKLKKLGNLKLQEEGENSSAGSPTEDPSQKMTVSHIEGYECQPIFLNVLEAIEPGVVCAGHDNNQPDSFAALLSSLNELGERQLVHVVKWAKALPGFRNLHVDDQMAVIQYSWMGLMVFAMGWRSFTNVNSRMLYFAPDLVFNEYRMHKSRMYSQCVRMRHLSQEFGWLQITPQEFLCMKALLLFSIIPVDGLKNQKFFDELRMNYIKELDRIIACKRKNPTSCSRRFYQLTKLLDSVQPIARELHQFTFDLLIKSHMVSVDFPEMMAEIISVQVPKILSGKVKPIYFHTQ
Summary of the method: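 Cytosol from castrated rat ventral prostate was incubated overnight at 4°C with 0.5 nM [3H] tracer and compound in TED buffer (10 mM Tris-HCl pH 7.4, molybdate, EDTA, DTT, glycerol).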

[2] = molecular target: T2, androgen receptor LBD (Panvera) (Rattus norvegicus, UniProt P15207); test: Androgen Receptor Filtration Binding Assay (PANVERA); conditions: [3H] R1881 tracer 0.5 nM; read-out: IC50 (nM), Androgen Receptor Binding (Panvera)
T2 construct: 5 pmol androgen receptor LBD (Panvera); purchased Panvera
T2 sequence (P15207 651-882 limits assumed): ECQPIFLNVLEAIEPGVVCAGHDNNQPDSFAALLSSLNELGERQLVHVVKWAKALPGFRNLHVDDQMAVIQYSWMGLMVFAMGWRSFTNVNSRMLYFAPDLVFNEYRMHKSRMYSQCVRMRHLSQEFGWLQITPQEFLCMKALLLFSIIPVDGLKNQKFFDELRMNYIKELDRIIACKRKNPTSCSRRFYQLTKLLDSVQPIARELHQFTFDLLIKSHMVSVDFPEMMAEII
Experimental: The assay was run on a 96 well plate with each well filled with a total reaction volume 150 μL, of a solution containing 5 pmol androgen receptor LBD (Panvera) or 30 μL of freshly prepared rat cytosol, 0.5 nM [^3H] […] (TED buffer contains 10 mM Tris.HCl pH 7.4, 1 mM sodium molybdate, 1.5 mM EDTA, 1 mM DTT and 10% (v/v) glycerol.)
On day one, the solution containing receptor, tracer and TED buffer was distributed into a 96 well plate. Diluted test compound or control vehicle was then added to individual wells and the plate incubated at 4° C. overnight.
On day two, to each well was then added 20 μL human γ-globulin (ICN 823102), prepared at 25 mg/ml in TE pH 8.0, and 55 μL 40% polyethylene glycol 8000 (J T Baker U222-08), prepared in TE pH 8.0. The plate was incubated at 4° C. for 60 minutes. During incubation, the harvester was rinsed with 10% PEG 8000, prepared in TE pH 8.0, and a GF/C Unifilter-96 was pre-wet with 10% PEG. The binding reaction was filtered, the retentate was washed three times with 10% PEG and dried under vacuum for a couple of minutes, then dried at 50° C. for 5 min and the plate was bottom sealed. Next, 25 μL of Microscint-20 (Packard) was added to the filter wells and the plate was top sealed. The plate wells were then counted on a TopCount (Packard).
Counts per well were measured and IC50s determined by linear regression.

[3] = test system: testosterone-enhanced ventral prostate and seminal vesicle weights; test: Ventral Prostate and Seminal Vesicle Weight in vivo Assay; design: species or system rat; conditions: immature castrated male Sprague Dawley rats, once daily for five days, usually orally 40 mg/kg, with testosterone propionate 2 mg/kg s.c. Further: key: 'active' if the non weight adjusted prostate weight was ≦40 mg or the % Inhibition prostate weight, body weight adjusted was ≧40% @ 2 mg/day dosage; ID50's, if determined, of ≦15 mg/day also indicated an 'active' compound; listed herein as 'inactive' as they did not meet the specified criteria defined above.
Summary of the method: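 Wet weights of ventral prostate and seminal vesicles were taken on day six. Castrated immature male Sprague Dawley rats had received five daily doses of testosterone propionate (2 mg/kg s.c.) together with test compound, typically 40 mg/kg orally. Activity was scored from absolute prostate weight or body-weight-adjusted % inhibition.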

[4] = molecular target: T3, androgen receptor (AdEasy+rAR, COS-7 cells) (Rattus norvegicus, UniProt P15207); test: COS-7 Whole-Cell Androgen Receptor Binding Assay, Adenovirus Transduction; conditions: for inhibition at 3 µM / % Inhibition, COS Binding: concentration of 3000 nM; for IC50: read-out: IC50 (nM), COS Binding; for % Inhibition, COS Binding: 3 µM
T3 construct: expressed in transfected cells; host or cells: COS-7 cells transduced with adenovirus AdEasy+rAR
T3 sequence (P15207 1-902): T1 sequence (P15207 1-902)
Summary of the method: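 COS-7 cells in phenol red-free DMEM/F12 with 10% charcoal-treated FBS were transduced with AdEasy+rAR adenovirus (moi 1:50 per well), exposed to test compound in duplicate and incubated for 48 h at 37° C. Cells were then lysed in 0.5% Triton X-100 and bound radioactivity counted by scintillation.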

[5] = molecular target: T4, androgen receptor (AdEasy+rAR, L929 cells) (Rattus norvegicus, UniProt P15207); test: L929 Androgen Receptor Functional Assay, Adenovirus Transduction; type: cell-based; conditions: for % Activity, L929 androgen receptor functional assay: agonist testing; for IC50: antagonist testing with R1881; for inhibition at 3 µM: L929, antagonist testing with R1881, 3000 nM
T4 construct: expressed in transfected cells; host or cells: L929 cells transduced with adenovirus AdEasy+rAR
T4 sequence (P15207 1-902): T1 sequence (P15207 1-902)
Summary of the method: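 Luminescent reporter readout after 48 h at 37 °C: rat AR delivered by adenovirus (AdEasy+rAR, moi 1:500) into L929 cells grown without phenol red in charcoal-treated serum. Antagonist wells also received R1881 (2.5× dilution at 2.5 nM).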

SMILES | IC50 [2] | active / inactive: inhibition of testosterone-enhanced prostate weight [3] | inhibition at 3 µM [4] [%] | IC50 [4] | further results
CC(O)(COC(=O)c1ccccc1)c1cc2cc(Cl)c(C(F)(F)F)cc2[nH]1 (stereo not drawn) [Compound 61] | 440 nM |  |  |  | inhibition at 1 µM ([1]; Concentration 1000 nM): 73%
CC(O)(CSc1ccc(Cl)cc1)c1cc2ccccc2n1S(C)(=O)=O (stereo not drawn) [Compound 88] | 5150 nM |  |  |  | inhibition at 1 µM ([1]; Concentration 1000 nM): -17.4%
CC(O)(CSc1ccc([N+](=O)[O-])cc1)c1cc2cc([N+](=O)[O-])c(C(F)(F)F)cc2[nH]1 (stereo not drawn) [Compound 103] | 1650 nM |  |  |  | 
CC(O)(CSc1ccc(Cl)c(Cl)c1)c1cc2cc(Cl)c(C(F)(F)F)cc2n1S(C)(=O)=O (stereo not drawn) [Compound 86] | 1250 nM |  |  |  | inhibition at 1 µM ([1]; Concentration 1000 nM): 72.5%; IC50 [1]: 240 nM
CC(O)(COC(=O)c1ccc(Cl)cc1)c1cc2cc(Cl)c(C(F)(F)F)cc2[nH]1 (racemic) [Compound 62] | 325 nM |  |  |  | % Inhibition, Androgen Receptor Binding (Rat Cytosol) ([1]; Concentration 1000 nM): 69%
CC(O)(CSc1ccc(F)cc1)c1cc2cc(Cl)c(C(F)(F)F)cc2[nH]1 (stereo not drawn) [Compound 83] | 160 nM and 545 nM |  |  |  | inhibition at 1 µM ([1]; Concentration 1000 nM): 69%; IC50 [1]: 120 nM
CCSCC(C)(O)c1cc2cc(Cl)c(C(F)(F)F)cc2[nH]1 (stereo not drawn) [Compound 152] |  | inactive | 39 | 108 nM | inhibition at 3 µM ([1]; Concentration 3000 nM): 97%
CC(O)(SC1CCCCC1)c1cc2cc([N+](=O)[O-])c(C(F)(F)F)cc2[nH]1 (racemic) [Compound 256] | 2650 nM |  |  |  | 
CC(O)(SC1CCCCC1)c1cc2cc(C#N)c(C(F)(F)F)cc2[nH]1 (racemic) [Compound 257] | 5150 nM |  |  |  | 
CSCC(C)(O)c1cc2cc([N+](=O)[O-])c(C(F)(F)F)cc2[nH]1 (racemic) [Compound 139] |  | active | 94 | 63 nM and 252 nM | % Inhibition, COS Binding [4]: 97%; % Activity, L929 androgen receptor functional assay ([5]; 3000 nM, 3 µM): 0% and 1%
CCS(=O)(=O)CC(C)(O)c1[nH]c2cc(C(F)(F)F)c(C#N)cc2c1C (single isomer, unassigned) [Compound 252] |  | active |  | > 3000 nM | % Inhibition, COS Binding [4]: 68%; % Activity, L929 androgen receptor functional assay ([5]; 3000 nM, 3 µM): 1%; IC50 [5]: 3100 nM; % Inhibition, L929 androgen receptor functional assay ([5]; antagonist testing with R1881, 3000 nM, 3 µM): 65%
CCC(O)(CSCC(F)(F)F)c1cc2cc(Cl)c(C(F)(F)F)cc2[nH]1 (stereo not drawn) [Compound 192] |  | active | 86 | 82 nM | inhibition at 3 µM [5]: 89%; % Activity, L929 androgen receptor functional assay ([5]; 3000 nM): 8%
CCC(O)(CSCC(F)(F)F)c1cc2cc([N+](=O)[O-])c(C(F)(F)F)cc2[nH]1 (stereo not drawn) [Compound 185] |  | active | 92 | 61 nM | inhibition at 3 µM [5]: 97%; % Activity, L929 androgen receptor functional assay ([5]; 3000 nM): 2%
CCSCC(C)(O)c1cc2cc(F)c(C(F)(F)F)cc2[nH]1 (racemic) [Compound 206] |  | active |  |  | % Inhibition, COS Binding [4]: −40%; % Activity, L929 androgen receptor functional assay ([5]; 3000 nM, 3 µM): 5%
CCSCC(C)(OC)c1cc2cc(C#N)c(C(F)(F)F)cc2n1C (stereo not drawn) [Compound 235] |  | inactive | 78 | 520 nM | inhibition at 3 µM [5]: 95%; % Activity, L929 androgen receptor functional assay ([5]; 3000 nM): 3%; IC50 [5]: 1840 nM
CC(O)(CSc1ccc(Cl)cc1)c1cc2ccccc2[nH]1 (stereo not drawn) [Compound 89] | > 9600 nM |  |  |  | 
CCCCSCC(C)(O)c1cc2cc([N+](=O)[O-])c(C(F)(F)F)cc2[nH]1 (stereo not drawn) [Compound 200] |  | inactive | 97 |  | inhibition at 3 µM [5]: 96%; % Activity, L929 androgen receptor functional assay ([5]; 3000 nM): 1%
CCS(=O)(=O)CC(C)(O)c1[nH]c2cc(C(F)(F)F)c(C#N)cc2c1C (single isomer, unassigned) [Compound 251, 2-(2-Ethanesulfonyl-1-hydroxy-1-methyl-ethyl)-3-methyl-6-trifluoromethyl-1H-indole-5-carbonitrile] |  | active | 85 | 220 nM | % Activity, L929 androgen receptor functional assay ([5]; 3000 nM, 3 µM): −1%; IC50 [5]: 200 nM
CC(O)(C[S+]([O-])c1ccc(F)cc1)c1cc2cc(Cl)c(C(F)(F)F)cc2[nH]1 (stereo not drawn) [Compound 113] | 5100 nM | inactive |  |  | 
CC(O)(Sc1ccc(Cl)cc1)c1cc2cc([N+](=O)[O-])c(C(F)(F)F)cc2[nH]1 (racemic) [Compound 259] | 915 nM |  |  |  | 
CC(O)(CSc1ccccc1N)c1cc2cc(Cl)c(C(F)(F)F)cc2[nH]1 (stereo not drawn) [Compound 123] |  | inactive |  | > 3000 nM | % Activity, L929 androgen receptor functional assay ([5]; 3000 nM): −4%; % Activity, L929 androgen receptor functional assay ([5]; @ 8000 nM): 1 @ 8000 nM %
